Here are results for 66 substances from patent US11028127B2, “Peptides capable of reactivating p53 mutants” (Yeda Research and Development Co. Ltd., priority 2013, dated 2021).

In the experiment the test system is Mut-p53. As to the kind of experiment: Total activity score over combined assays (Table 8). Particulars: for Activity Score: Table 10 summary of activity of the peptides tested; for AS (Activity Score): total score of Table 7; for PCR, activity score / Conformation, activity score: Table 8; for PCR, activity score: head span not shown; for Conformation, activity score: the 14 score columns c4-c17 stand under the heads Conformation, DNA binding, Viability, PCR. On the set-up: scale not given here. The text has this: Several alternative and complementary methods to screen lead peptide candidates for conformational and functional effects on Mut-p53 were employed. For increased penetration of peptide across cell membranes each peptide contains 3-6 Arginine residues either as part of its sequence or added either at its N-terminus or its C-terminus. […] In-vitro based assays for evaluation were first performed, such as ELISA for assessment of p53 conformation and sequence-specific DNA binding of p53.

Primed or numbered codes have the meaning given here. Where no end group is shown, it is not given here. The star is where a group is joined. FITC′ = fluorescein isothiocyanate label at the N-terminus; Myristoyl = CCCCCCCCCCCCCC(=O)*

With pCAP42 (MHPPDWYHHTPKH), the “Activity Score” value came to 29 and the “AS (Activity Score)” value is 29.

pCAP321 (RNIIIRDFIHFSHIDR): the “Activity Score” value was 0.

Take pCAP259 (Myristoyl-RTLIGIIRSHHLTLIRR): the “PCR, activity score” value is recorded as 2 and the “Activity Score” value worked out at 25.

For pCAP76 (GGGGGGGGGRRRRRRR), the “Activity Score” value is 0 and the “AS (Activity Score)” value was 0.

With pCAP150 (IIRGNFLIGGRLRRRRRRRRR), the “Activity Score” value worked out at 26 and the “AS (Activity Score)” value is 26.

For pCAP235 (RSYSKLLCLLERLRISP), the “Activity Score” value stood at 11.

For pCAP320 (EPSHPRSRYPRTF), the “Activity Score” value is recorded as 0.

Turning to pCAP25 (YRRLLIGMMW), the “Activity Score” value is 0 and the “AS (Activity Score)” value amounted to 0.

Regarding pCAP315 (LHFSHIDRR), the “Activity Score” value is 9.

For pCAP104 (LLRLGLI), the “Activity Score” value amounted to 21 and the “AS (Activity Score)” value was found to be 21.

With pCAP126 (RRLRICV), the “Activity Score” value was 0 and the “AS (Activity Score)” value is listed as 0.

As for pCAP52 (SPYPIRT), the “Activity Score” value is reported as 3 and the “AS (Activity Score)” value was 3.

Take pCAP74 (IRGRIIRRKKRRQRRRRGDR): the “Activity Score” value came out at 6 and the “AS (Activity Score)” value amounted to 6.

Consider pCAP204 (MSTESNMPRLIQNDDRRR), for which the “PCR, activity score” value is 5 and the “Activity Score” value turned out to be 20.

Regarding pCAP33 (SILTLRLRRLRR), the “Activity Score” value is 16 and the “AS (Activity Score)” value is on record as 16.

As to pCAP93 (ATQHHYIK), the “Activity Score” value came out at 17 and the “AS (Activity Score)” value is on record as 17.

Regarding pCAP85 (KLTIHHH), the “Activity Score” value is 0 and the “AS (Activity Score)” value came to 0.

As for pCAP130 (EVTFRHSVVRRRRRRRRRRR), the “Activity Score” value was 13 and the “AS (Activity Score)” value turned out to be 13.

As for pCAP282 (Myristoyl-RRPVAPDLRHTIHIPPER), the “PCR, activity score” value turned out to be 3; the “Conformation, activity score” value was 4; the “Activity Score” value came to 43.

As to pCAP34 (SILTLSRIVLGWW), the “Activity Score” value was found to be 14 and the “AS (Activity Score)” value was 14.

Consider pCAP288 (THDFDRLLRIRRR), for which the “Activity Score” value is 6.

In the case of pCAP79 (SVHHHHRMHLVA), the “Activity Score” value was 0 and the “AS (Activity Score)” value was 0.

Take pCAP268 (TPSYGHTPSHHRRR): the “Conformation, activity score” value worked out at 3 and the “Activity Score” value is given as 12.

Consider pCAP97 (WNHHHSTPHPAH), for which the “Activity Score” value stood at 47 and the “AS (Activity Score)” value is recorded as 47.

Take pCAP80 (HLHKHHYKDSRM): the “Activity Score” value amounted to 9 and the “AS (Activity Score)” value is 9.

In the case of pCAP314 (RSTPHIHEFIRR), the “Activity Score” value was 3.

As to pCAP152 (YRRLLIGMRRRRRRRRRRRR), the “Activity Score” value stood at 11 and the “AS (Activity Score)” value is on record as 11.

Turning to pCAP110 (LFILVFR), the “Activity Score” value came out at 2 and the “AS (Activity Score)” value is on record as 2.

In the case of pCAP30 (TIHPSIS), the “Activity Score” value is 16 and the “AS (Activity Score)” value worked out at 16.

Regarding pCAP160 ({FITC′}-SFILFIRRGRLGRRRRRRRRR), the “Activity Score” value was 24 and the “AS (Activity Score)” value is on record as 24.

Regarding pCAP118 (SNHHHRHHTNTH), the “Activity Score” value is 13 and the “AS (Activity Score)” value worked out at 13.

For pCAP108 (IIRGNFLIGGRL), the “Activity Score” value is 17 and the “AS (Activity Score)” value came out at 17.

Regarding pCAP248 (EIYGESGKTDEHALDTEYRR), the “Activity Score” value stood at 0.

On to pCAP300 (RIRRDPDSPLPHPE), for which the “Activity Score” value amounted to 0.

In the case of pCAP115 (HPHNHTVHNVVY), the “Activity Score” value was 3 and the “AS (Activity Score)” value came out at 3.

As to pCAP23 (IRILMFLIGCGR), the “Activity Score” value worked out at 22 and the “AS (Activity Score)” value came out at 22.

With pCAP94 (LRFIDYP), the “Activity Score” value came out at 4 and the “AS (Activity Score)” value turned out to be 4.

Consider pCAP318 (RPEFHSFHPIYERR), for which the “Activity Score” value is on record as 6.

For pCAP293 (RRIRIDPQHD), the “Activity Score” value was 2.

In the case of pCAP210 (DEFERYRRFSTSRRR), the “PCR, activity score” value was found to be 6; the “Conformation, activity score” value stood at 3; the “Activity Score” value is recorded as 29.

pCAP262 (ESKTGHKSEEQRLRRYR): the “Activity Score” value was 0.

As for pCAP156 (VPHIHEFTRRRRRRRR), the “Activity Score” value is 0 and the “AS (Activity Score)” value is given as 0.

Consider pCAP58 (SILPLFLIRRSG), for which the “Activity Score” value stood at 5 and the “AS (Activity Score)” value is recorded as 5.

With pCAP116 (KHHPFDHRLGNQ), the “Activity Score” value was 0 and the “AS (Activity Score)” value came to 0.

pCAP127 (SPPIRHH): the “Activity Score” value was determined as 3 and the “AS (Activity Score)” value is given as 3.

On to pCAP128 (CILRLWW), for which the “Activity Score” value is 19 and the “AS (Activity Score)” value was 19.

Consider pCAP3 (FWTQSIKERKMLNEHDFEVR), for which the “Activity Score” value is given as 12 and the “AS (Activity Score)” value worked out at 12.

pCAP112 (TTSHHPK): the “Activity Score” value worked out at 2 and the “AS (Activity Score)” value stood at 2.

Take pCAP311 (EIHTIHLLPERR): the “Activity Score” value was 0.

In the case of pCAP228 (DEDAAHSTGHPHNSQHRRRR), the “Activity Score” value was determined as 3.

pCAP203 (RRRHDSCHNQLQNYDHSTE): the “PCR, activity score” value turned out to be 4 and the “Activity Score” value came to 42.

Consider pCAP303 (IVEFRIRR), for which the “Activity Score” value is 3.

As to pCAP310 (RLRCLLLLIGRVGRR), the “Activity Score” value was found to be 4.

Consider pCAP267 (KRGGRKRRGGGHRLSYFIRR), for which the “PCR, activity score” value is 2; the “Conformation, activity score” value came to 3; the “Activity Score” value was found to be 28.

Turning to pCAP102 (SSVHHRG), the “Activity Score” value came out at 3 and the “AS (Activity Score)” value was determined as 3.

Consider pCAP297 (HDFDPRYRDRR), for which the “Activity Score” value was 0.

pCAP15 (THFSHHLKH): the “Activity Score” value came to 12 and the “AS (Activity Score)” value is on record as 12.

As to pCAP38 (WTLSNYL), the “Activity Score” value is on record as 2 and the “AS (Activity Score)” value is reported as 2.

Consider pCAP207 (RRSRSNEDVEDKTEDE), for which the “Activity Score” value is 0.

Turning to pCAP273 (RDFHTIHPSISRR), the “Activity Score” value was determined as 3.

As for pCAP234 (HRTGHYTRCRQRCRSRSHNRH), the “Activity Score” value was 2.

For pCAP61 (KDLPFYSHLSRQ), the “Activity Score” value was 17 and the “AS (Activity Score)” value turned out to be 17.

pCAP316 (Myristoyl-DIHTIHLPDTHRR): the “Activity Score” value was 7.

Turning to pCAP240 (TEQHHYIPHRRR), the “Activity Score” value is on record as 3.

Take pCAP229 (Myristoyl-PRVLPSPHTIHPSQYP): the “PCR, activity score” value was determined as 4 and the “Activity Score” value was determined as 36.

Regarding pCAP144 (SFILFIRRGRLGRRRRRRRRR), the “Activity Score” value amounted to 49 and the “AS (Activity Score)” value came to 49.
